Data from ChEMBL document CHEMBL1201862, “PubChem BioAssay data set” (2004).
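48-hour exposure; five concentrations; linearly interpolated endpoints. Here, GI50 denotes the concentration required for 50% inhibition of growth.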 Activity calls are given as the source filed them. Rule as the data show it: active = GI50 up to about 1.1 µM and inactive = higher.

Experiments:
Assay in all cases: growth of human tumour cells (NCI), 48 h
SF-295 = tested on: SF-295
SK-MEL-2 = tested on: SK-MEL-2
A549 = tested on: A549
M19-MEL = tested on: M19-MEL
K562 = tested on: K562
UACC-62 = tested on: UACC-62
RXF 393 = tested on: RXF 393
SK-MEL-28 = tested on: SK-MEL-28
OVCAR-8 = tested on: OVCAR-8
MOLT-4 = tested on: MOLT-4
M14 = tested on: M14
SN12C = tested on: SN12C
SW-620 = tested on: SW-620
786-0 = tested on: 786-0
Malme-3M = tested on: Malme-3M
UACC-257 = tested on: UACC-257
IGROV-1 = tested on: IGROV-1
RPMI-8226 = tested on: RPMI-8226
HOP-62 = tested on: HOP-62
KM12 = tested on: KM12
LXFL 529 = tested on: LXFL 529
DMS-273 = tested on: DMS-273
OVCAR-4 = tested on: OVCAR-4
RXF 631 = tested on: RXF 631
U-251 = tested on: U-251
NCI-H460 = tested on: NCI-H460
EKVX = tested on: EKVX
COLO 205 = tested on: COLO 205
HOP-92 = tested on: HOP-92
HT-29 = tested on: HT-29
SK-MEL-5 = tested on: SK-MEL-5
A498 = tested on: A498
LOX IMVI = tested on: LOX IMVI
HCT-116 = tested on: HCT-116
SK-OV-3 = tested on: SK-OV-3
TK-10 = tested on: TK-10
XF498 = tested on: XF498
UO-31 = tested on: UO-31
HCC 2998 = tested on: HCC 2998
CCRF-CEM = tested on: CCRF-CEM
HL-60 = tested on: HL-60
NCI-H23 = tested on: NCI-H23
SF-539 = tested on: SF-539
SNB-75 = tested on: SNB-75
OVCAR-3 = tested on: OVCAR-3
SNB-19 = tested on: SNB-19
NCI-H522 = tested on: NCI-H522
SNB-78 = tested on: SNB-78
CAKI-1 = tested on: CAKI-1
DLD-1 = tested on: DLD-1
SF-268 = tested on: SF-268
HCT-15 = tested on: HCT-15
KM-20L2 = tested on: KM-20L2
SR = tested on: SR
OVCAR-5 = tested on: OVCAR-5
NCI-H226 = tested on: NCI-H226
DMS-114 = tested on: DMS-114
ACHN = tested on: ACHN
HOP-18 = tested on: HOP-18

Measured: GI50

O=C1CC[C@H]2CNC(=O)C[C@H]2C1
> 100 µM: HCT-15
inactive: SF-295 > 100 µM | SK-MEL-2 > 100 µM | A549 > 100 µM | M19-MEL > 100 µM | K562 > 100 µM | UACC-62 > 100 µM | RXF 393 > 100 µM | SK-MEL-28 > 100 µM | OVCAR-8 > 100 µM | MOLT-4 > 100 µM | M14 > 100 µM | SN12C > 100 µM | SW-620 > 100 µM | 786-0 > 100 µM | Malme-3M > 100 µM | UACC-257 > 100 µM | IGROV-1 > 100 µM | RPMI-8226 > 100 µM | HOP-62 > 100 µM | KM12 > 100 µM | LXFL 529 > 100 µM | DMS-273 > 100 µM | OVCAR-4 > 100 µM | RXF 631 > 100 µM | U-251 > 100 µM | NCI-H460 > 100 µM | EKVX > 100 µM | COLO 205 > 100 µM | HOP-92 > 100 µM | HT-29 > 100 µM | SK-MEL-5 > 100 µM | A498 > 100 µM | LOX IMVI > 100 µM | HCT-116 > 100 µM | SK-OV-3 > 100 µM | TK-10 > 100 µM | XF498 > 100 µM | UO-31 > 100 µM | HCC 2998 > 100 µM | CCRF-CEM > 100 µM | HL-60 > 100 µM | NCI-H23 > 100 µM | SF-539 > 100 µM | SNB-75 > 100 µM | OVCAR-3 > 100 µM | SNB-19 > 100 µM | NCI-H522 > 100 µM | SNB-78 > 100 µM | CAKI-1 > 100 µM | DLD-1 > 100 µM | SF-268 > 100 µM

CC(=O)NNc1nc(C)c(C(=O)NNC(=O)C(=O)Nc2ccc([N+](=O)[O-])cc2[N+](=O)[O-])s1
inactive: SF-295 > 100 µM | SK-MEL-2 > 100 µM | A549 68.9 µM | K562 39.4 µM | UACC-62 > 100 µM | RXF 393 80.4 µM | SK-MEL-28 > 100 µM | OVCAR-8 > 100 µM | MOLT-4 37.1 µM | KM-20L2 > 100 µM | M14 > 100 µM | SN12C > 100 µM | SW-620 > 100 µM | SR 81.1 µM | UACC-257 > 100 µM | IGROV-1 > 100 µM | RPMI-8226 99.8 µM | HOP-62 > 100 µM | KM12 > 100 µM | LXFL 529 93.1 µM | DMS-273 > 100 µM | OVCAR-4 > 100 µM | RXF 631 68.9 µM | U-251 68.7 µM | NCI-H460 > 100 µM | EKVX 35.6 µM | COLO 205 > 100 µM | HOP-92 79.3 µM | HT-29 55.3 µM | SK-MEL-5 > 100 µM | A498 > 100 µM | LOX IMVI > 100 µM | HCT-116 > 100 µM | SK-OV-3 > 100 µM | OVCAR-5 > 100 µM | TK-10 > 100 µM | XF498 > 100 µM | UO-31 > 100 µM | HCC 2998 > 100 µM | CCRF-CEM 22.3 µM | NCI-H226 > 100 µM | HL-60 64.9 µM | NCI-H23 > 100 µM | SF-539 > 100 µM | SNB-75 47.5 µM | DMS-114 30.1 µM | SNB-19 > 100 µM | NCI-H522 30.6 µM | SNB-78 > 100 µM | CAKI-1 57.1 µM | DLD-1 > 100 µM | SF-268 > 100 µM | ACHN > 100 µM
> 100 µM: HCT-15

O=C(/C=C/c1ccc(-c2ccccc2)cc1)c1ccccc1
17.7 µM: HCT-15
inactive: SF-295 30.2 µM | SK-MEL-2 12.7 µM | A549 19.5 µM | M19-MEL 24 µM | K562 27.7 µM | UACC-62 20.8 µM | SK-MEL-28 25.8 µM | OVCAR-8 17.3 µM | MOLT-4 46.9 µM | M14 31.1 µM | SN12C 30.4 µM | SW-620 20.7 µM | SR 12.7 µM | 786-0 22.8 µM | Malme-3M 41.9 µM | UACC-257 32.4 µM | IGROV-1 26.7 µM | HOP-18 > 100 µM | RPMI-8226 19.5 µM | KM12 17.9 µM | LXFL 529 17.6 µM | OVCAR-4 29.7 µM | RXF 631 25.2 µM | U-251 22.9 µM | NCI-H460 20.6 µM | EKVX 23.3 µM | COLO 205 22.3 µM | HOP-92 16.6 µM | HT-29 21.9 µM | SK-MEL-5 19.7 µM | A498 20 µM | LOX IMVI 15.7 µM | HCT-116 14.5 µM | SK-OV-3 23.7 µM | OVCAR-5 17.3 µM | TK-10 22.1 µM | XF498 25.2 µM | UO-31 35 µM | HCC 2998 18.2 µM | CCRF-CEM 90.4 µM | NCI-H226 22.1 µM | HL-60 39.6 µM | NCI-H23 20.1 µM | SF-539 17.9 µM | SNB-75 31 µM | DMS-114 14.6 µM | NCI-H522 17.3 µM | SNB-78 29 µM | CAKI-1 38.7 µM | DLD-1 26.3 µM | SF-268 24.8 µM | ACHN 31.6 µM
